Measured values from patent US12097173B2, “Volatile organic compound formulations having antimicrobial activity” (priority 2019, dated 2024).

What was measured:
Assay type in all cases: cell-based
Fusarium solani = assay: plate bioassay of volatile test mixtures, growth inhibition; conditions: Table 4; 30 hr at room temperature, compared to control
Method: (§1) FIG. 9 depicts the biological activities of various test mixtures against a panel of test microbes. A small plug of each organism was placed in the periphery of the PDA plate. In the center well was placed the test solution in the plastic cup holder. A control plate (A) was also set up. After 30 hr the growth of the test organisms was compared to that of the control and the % inhibition was calculated. The (B) plate contained the test mixture. Measurements were made 30 hr after plate set up.
as §1, with “Tests were conducted as similarly described for Systems 1 and 2 above (FIG. 9) to ascertain” for “FIG. 9 depicts”
(§2) All testing was done according to the methods in Table 4

Aspergillus flavus = assay: as above; conditions: Table 4; 30 hr at room temperature, compared to control
Method: as §1
as §1, with “Tests were conducted as similarly described for Systems 1 and 2 above (FIG. 9) to ascertain” for “FIG. 9 depicts”
as §2

Fusarium subglutinans = assay: as above; conditions: 30 hr at 22° C.; esters with 1:1 v/v propanoic acid and isobutryic acid (acids to ester 7:2 v/v), 9 ul; acids 7 ul
Method: (§3) FIG. 1 illustrates a plate bioassay to determine the bioactivity of various esters when combined with a 1:1 mix of the two organic acids as per Table 2. The test organisms were as follows—Cercospora (dark-lower left bottom) then clockwise—Phytophthora, Verticillium, Sclerotinia, Pythium. Fusarium, Trichoderma, Rhizoctonia, and Aspergillus. The streaks were Saccharomyces (far right bottom) then Candida, E coli and Bacillus (left bottom). A=control plate, and B=plate with System 1 after incubation for 30 hr.
(§4) FIG. 1. Indicates how the assays were done to yield the data sets in Table 1. The various esters were combined with a 1:1 mixture of propanoic acid and isobutryic acid and these were added 7:2 V/V with the ester to be tested.
(§5) Shown in Table 1, are the inhibition and killing effects of propanoic acid, and isobutryic acid together and alone and with various esters. The tests were conducted over the course of 30 hr at 22° C. Measurements were made on appropriate controls and thus the percentage of inhibition calculations could be made on treatments vs the growth on a control organism (non-treated). The bacteria and yeast like organisms were evaluated on the basis of relative growth rates after 30 hr. Those highlighted areas on the table show those compounds (esters) having the most compatibility with propanoic and isobutryic acid 1:1 v/v mixtures with the appropriate esters at a 7:2 ratio—Systems 1 and 2 above. It is from this test that Systems 1 and 2 were discovered. The acids were added at […] individually and combination of the esters with the acids were added at the […] in the plate assay.

Aspergillus fumigatus = assay: as above; conditions: 30 hr at 22° C.; esters with 1:1 v/v propanoic acid and isobutryic acid (acids to ester 7:2 v/v), 9 ul; acids 7 ul
Method: as §3, §4, §5

Sclerotinia sclerotiorum = assay: as above; conditions: for percent inhibition of the growth of Sclerotinia sclerotiorum: Table 4, 30 hr at room temperature, compared to control
Method: as §3, §1, §4
The tests were conducted over the course of 30 hr at 22° C. Measurements were made on appropriate controls and thus the percentage of inhibition calculations could be made on treatments vs the growth on a control organism (non-treated). The bacteria and yeast like organisms were evaluated on the basis of relative growth rates after 30 hr. […] The acids were added at […] individually and combination of the esters with the acids were added at the […] in the plate assay.
as §1, with “Tests were conducted as similarly described for Systems 1 and 2 above (FIG. 9) to ascertain” for “FIG. 9 depicts”

Trichoderma viridae = assay: as above; conditions: for percent inhibition of the growth of Trichoderma viridae: Table 4, 30 hr at room temperature, compared to control
Method: as §3, §1, §4, §5
as §1, with “Tests were conducted as similarly described for Systems 1 and 2 above (FIG. 9) to ascertain” for “FIG. 9 depicts”

Cercospora beticola = assay: as above; conditions: for percent inhibition of the growth of Cercospora beticola: Table 4, 30 hr at room temperature, compared to control
Method: as §3, §1, §4, §5
as §1, with “Tests were conducted as similarly described for Systems 1 and 2 above (FIG. 9) to ascertain” for “FIG. 9 depicts”

Phytophthora cinnamomi = assay: as above; conditions: for percent inhibition of the growth of Phytophthora cinnamomi: Table 4, 30 hr at room temperature, compared to control
Method: as §3, §1, §4, §5
as §1, with “Tests were conducted as similarly described for Systems 1 and 2 above (FIG. 9) to ascertain” for “FIG. 9 depicts”

Pythium ultimum = assay: as above; conditions: for percent inhibition of the growth of Pythium ultimum: Table 4, 30 hr at room temperature, compared to control
Method: as §3, §1, §4, §5
as §1, with “Tests were conducted as similarly described for Systems 1 and 2 above (FIG. 9) to ascertain” for “FIG. 9 depicts”

Rhizoctonia solani = assay: as above; conditions: for percent inhibition of the growth of Rhizoctonia solani: Table 4, 30 hr at room temperature, compared to control
Method: as §3, §1, §4, §5
as §1, with “Tests were conducted as similarly described for Systems 1 and 2 above (FIG. 9) to ascertain” for “FIG. 9 depicts”

Verticillium dahliae = assay: as above; conditions: for percent inhibition of the growth of Verticillium dahliae: Table 4, 30 hr at room temperature, compared to control
Method: as §3, §1, §4, §5
as §1, with “Tests were conducted as similarly described for Systems 1 and 2 above (FIG. 9) to ascertain” for “FIG. 9 depicts”

Candida albicans = assay: plate bioassay of volatile test mixtures, relative growth of streak
Method: as §3, §1, §4, §5
as §1, with “Tests were conducted as similarly described for Systems 1 and 2 above (FIG. 9) to ascertain” for “FIG. 9 depicts”

Saccharomyces cerevicae = assay: as above; conditions: for growth of Saccharomyces cerevisiae: Table 4, 30 hr at room temperature
Method: as §3, §1, §4, §5
as §1, with “Tests were conducted as similarly described for Systems 1 and 2 above (FIG. 9) to ascertain” for “FIG. 9 depicts”

Escherichia coli = assay: as above
Method: as §3, §1, §4, §5
as §1, with “Tests were conducted as similarly described for Systems 1 and 2 above (FIG. 9) to ascertain” for “FIG. 9 depicts”

Bacillus subtilus = assay: as above
Method: as §3, §1, §4, §5
as §1, with “Tests were conducted as similarly described for Systems 1 and 2 above (FIG. 9) to ascertain” for “FIG. 9 depicts”

[1] = 30 hr at 22° C., esters with 1:1 v/v propanoic acid and isobutryic acid (acids to ester 7:2 v/v), 9 ul, acids 7 ul
[2] = Table 4, 30 hr at room temperature
[3] = relative growth after 30 hr at 22° C., esters with 1:1 v/v propanoic acid and isobutryic acid (7:2 v/v), 9 ul, acids 7 ul

| Compound | percent inhibition of the growth of Fusarium solani (Fusarium solani) | percent inhibition of the growth of Aspergillus flavus (Aspergillus flavus) | percent inhibition of the growth of Sclerotinia sclerotiorum (Sclerotinia sclerotiorum) | percent inhibition of the growth of Trichoderma viridae (Trichoderma viridae) | percent inhibition of the growth of Cercospora beticola (Cercospora beticola) | percent inhibition of the growth of Phytophthora cinnamomi (Phytophthora cinnamomi) | percent inhibition of the growth of Pythium ultimum (Pythium ultimum) | percent inhibition of the growth of Rhizoctonia solani (Rhizoctonia solani) | percent inhibition of the growth of Verticillium dahliae (Verticillium dahliae) | growth of Candida albicans (Candida albicans; [2]) | growth of Saccharomyces cerevisiae (Saccharomyces cerevicae) | growth of Escherichia coli (Escherichia coli; [2]) | growth of Bacillus subtilus (Bacillus subtilus; [2]) | also measured |
| --- | --- | --- | --- | --- | --- | --- | --- | --- | --- | --- | --- | --- | --- | --- |
| CCC(=O)O [Propanoic Acid, reference compound] | 17% | 52% | 0% | 45% | 66% | 38% | 100% | 81% | 83% | Medium | Yes | No | No | inhibition of Fusarium subglutinans (Fusarium subglutinans): 83%; inhibition of Aspergillus fumigatus (Aspergillus fumigatus): 80%; inhibition of Sclerotinia sclerotiorum (Sclerotinia sclerotiorum; [1]): 60%; inhibition of Trichoderma viridae (Trichoderma viridae; [1]): 53%; inhibition of Cercospora beticola (Cercospora beticola; [1]): 95%; inhibition of Phytophthora cinnamomi (Phytophthora cinnamomi; [1]): 67%; inhibition of Pythium ultimum (Pythium ultimum; [1]): 91%; inhibition of Rhizoctonia solani (Rhizoctonia solani; [1]): 100%; inhibition of Verticillium dahliae (Verticillium dahliae; [1]): 96%; growth of Candida albicans (Candida albicans; [3]): Growth Observed; growth of Saccharomyces cerevicae (Saccharomyces cerevicae; [3]): Growth Observed; growth of Escherichia coli (Escherichia coli; [3]): No Growth; growth of Bacillus subtilus (Bacillus subtilus; [3]): No Growth |
| Isoamyl Hexonates [reference compound] | 83% | 66% | 66% | 13% | 83% | 13% | 28% | 0% | 0% | Yes | Yes | Yes | Yes | – |
